Measured values from patent publication EP0527889B1, “QUINOLIZINONE TYPE COMPOUNDS” (priority 1990, dated 1991).
Converted amounts (≈) assume the structure as drawn.

Tests used:
Test in all cases: In vitro antibacterial activity, MIC by agar dilution
Assay type in all cases: cell-based
Settings in all cases: BHI agar, 35-37°C, 20-24 hours, unit assumed
[1] = test system: Pseudomonas aeruginosa 2862
Procedure: (§1) Each plate was inoculated with 1:100 (or 1:10 for slow growing strains, primarily Micrococcus and Streptococcus) dilutions of up to 32 different microorganisms, using a Steers replicator block calibrated to deliver approximately 10^4 colony forming units (CFUs). The inoculated plates were incubated at from about 35°C to about 37°C for approximately 20-24 hours. In addition, a control plate using BHI agar containing no test compound was prepared and incubated at the beginning and at the end of each test. Ciprofloxacin was used as the control antibiotic.
(§2) The MIC was defined as the lowest concentration of test compound yielding no growth (a slight haze or sparsely isolated colonies at the inoculum spot) as compared to the growth control containing no test compound.

[2] = test system: Pseudomonas aeruginosa K799/WT
Procedure: as §1, §2

[3] = test system: Streptococcus agalactaciae CMX 508
Procedure: as §1, §2

[4] = test system: Enterococcus faecium ATCC 8043
Procedure: as §1, §2

[5] = test system: Streptococcus pyrogenes CONST
Procedure: as §1, §2

Escherichia coli H560 = test system: Escherichia coli H560
Procedure: as §1, §2

[6] = test system: Streptococcus bovis A5169
Procedure: as §1, §2

[7] = test system: Pseudomonas aeruginosa 5263
Procedure: as §1, §2

[8] = test system: Staphylococcus aureus A-5278
Procedure: as §1, §2

Escherichia coli KNK 437 = test system: Escherichia coli KNK 437
Procedure: as §1, §2

[9] = test system: Staphylococcus aureus 642A
Procedure: as §1, §2

Escherichia coli DC-2 = test system: Escherichia coli DC-2
Procedure: as §1, §2

[10] = test system: Micrococcus luteus ATCC 4698
Procedure: as §1, §2

[11] = test system: Micrococcus luteus ATCC 9341
Procedure: as §1, §2

[12] = test system: Streptococcus pyrogenes EES61
Procedure: as §1, §2

[13] = test system: Providencia stuartii CMX 640
Procedure: as §1, §2

[14] = test system: Pseudomonas aeruginosa BMH10
Procedure: as §1, §2

[15] = test system: Klebsiella pneumoniae ATCC 8045
Procedure: as §1, §2

[16] = test system: Acinetobacter calcoaceticus CMX 669
Procedure: as §1, §2

[17] = test system: Pseudomonas aeruginosa A5007
Procedure: as §1, §2

[18] = test system: Staphylococcus aureus CMX 553
Procedure: as §1, §2

Pseudomonas cepacia 296I = test system: Pseudomonas cepacia 296I
Procedure: as §1, §2

[19] = test system: Staphylococcus aureus A5177
Procedure: as §1, §2

[20] = test system: Enterobacter aerogenes ATCC 13048
Procedure: as §1, §2

[21] = test system: Pseudomonas aeruginosa K799/61
Procedure: as §1, §2

[22] = test system: Streptococcus pyrogenes 2548 INDUC
Procedure: as §1, §2

Escherichia coli JUHL = test system: Escherichia coli JUHL
Procedure: as §1, §2

[23] = test system: Staphylococcus aureus 1775
Procedure: as §1, §2

[24] = test system: Staphylococcus aureus NCTC 10649
Procedure: as §1, §2

[25] = test system: Staphylococcus aureus ATCC 6538P
Procedure: as §1, §2

[26] = test system: Staphylococcus epidermidis 3519
Procedure: as §1, §2

Escherichia coli SS = test system: Escherichia coli SS
Procedure: as §1, §2

## CN1CCN(c2nc3c(-c4ccc(F)cc4F)cc(C(=O)O)c(=O)n3cc2F)CC1 [Example 159, 9-(2,4-Difluorophenyl)-3-fluoro-2-(4-methylpiperazin-1-yl)-6H-6-oxopyridol[1,2-a]pyrimidine-7-carboxylic acid]
[1]
  MIC values: > 100 µg/mL
[2]
  MIC values: 3.1 µg/mL (≈ 7.41 µM)
[3]
  MIC values: 3.1 µg/mL (≈ 7.41 µM)
[4]
  MIC values: 6.2 µg/mL (≈ 14.8 µM)
[5]
  MIC values: 3.1 µg/mL (≈ 7.41 µM)
Escherichia coli H560
  MIC values: 0.39 µg/mL (≈ 0.932 µM)
[6]
  MIC values: 12.5 µg/mL (≈ 29.9 µM)
[7]
  MIC values: > 100 µg/mL
[8]
  MIC values: 0.2 µg/mL (≈ 0.478 µM)
Escherichia coli KNK 437
  MIC values: 6.2 µg/mL (≈ 14.8 µM)
[9]
  MIC values: 0.39 µg/mL (≈ 0.932 µM)
Escherichia coli DC-2
  MIC values: 6.2 µg/mL (≈ 14.8 µM)
[10]
  MIC values: 12.5 µg/mL (≈ 29.9 µM)
[11]
  MIC values: 25 µg/mL (≈ 59.8 µM)
[12]
  MIC values: 3.1 µg/mL (≈ 7.41 µM)
[13]
  MIC values: 25 µg/mL (≈ 59.8 µM)
[14]
  MIC values: 3.1 µg/mL (≈ 7.41 µM)
[15]
  MIC values: 0.2 µg/mL (≈ 0.478 µM)
[16]
  MIC values: 0.78 µg/mL (≈ 1.86 µM)
[17]
  MIC values: 6.2 µg/mL (≈ 14.8 µM)
[18]
  MIC values: 0.39 µg/mL (≈ 0.932 µM)
Pseudomonas cepacia 296I
  MIC values: 25 µg/mL (≈ 59.8 µM)
[19]
  MIC values: 0.39 µg/mL (≈ 0.932 µM)
[20]
  MIC values: 0.78 µg/mL (≈ 1.86 µM)
[21]
  MIC values: 0.39 µg/mL (≈ 0.932 µM)
[22]
  MIC values: 3.1 µg/mL (≈ 7.41 µM)
Escherichia coli JUHL
  MIC values: 0.39 µg/mL (≈ 0.932 µM)
[23]
  MIC values: > 100 µg/mL
[24]
  MIC values: 0.2 µg/mL (≈ 0.478 µM)
[25]
  MIC values: 0.2 µg/mL (≈ 0.478 µM)
[26]
  MIC values: 0.39 µg/mL (≈ 0.932 µM)
Escherichia coli SS
  MIC values: 0.02 µg/mL (≈ 0.0478 µM)

## CC(C)(C)OC(=O)NC1CCN(c2nc3c(-c4ccc(F)cc4F)cc(C(=O)O)c(=O)n3cc2F)C1 (centres unmarked) [Example 160, 2-(3-(N-t-butoxycarbonyl)aminopyrrolidin-1-yl)-9-(2,4-difluorophenyl)-3-fluoro-6H-6-oxopyrido[1,2-a]pyrimidine-7-carboxylic acid]
[1]
  MIC values: > 100 µg/mL
[2]
  MIC values: 12.5 µg/mL (≈ 24.8 µM)
[3]
  MIC values: 1.56 µg/mL (≈ 3.09 µM)
[4]
  MIC values: 3.1 µg/mL (≈ 6.15 µM)
[5]
  MIC values: 1.56 µg/mL (≈ 3.09 µM)
Escherichia coli H560
  MIC values: 3.1 µg/mL (≈ 6.15 µM)
[6]
  MIC values: 6.2 µg/mL (≈ 12.3 µM)
[7]
  MIC values: > 100 µg/mL
[8]
  MIC values: 0.2 µg/mL (≈ 0.396 µM)
Escherichia coli KNK 437
  MIC values: 25 µg/mL (≈ 49.6 µM)
[9]
  MIC values: 0.2 µg/mL (≈ 0.396 µM)
Escherichia coli DC-2
  MIC values: 25 µg/mL (≈ 49.6 µM)
[10]
  MIC values: 0.78 µg/mL (≈ 1.55 µM)
[11]
  MIC values: 6.2 µg/mL (≈ 12.3 µM)
[12]
  MIC values: 1.56 µg/mL (≈ 3.09 µM)
[13]
  MIC values: > 100 µg/mL
[14]
  MIC values: 12.5 µg/mL (≈ 24.8 µM)
[15]
  MIC values: 1.56 µg/mL (≈ 3.09 µM)
[16]
  MIC values: 3.1 µg/mL (≈ 6.15 µM)
[17]
  MIC values: 25 µg/mL (≈ 49.6 µM)
[18]
  MIC values: 0.39 µg/mL (≈ 0.773 µM)
Pseudomonas cepacia 296I
  MIC values: > 100 µg/mL
[19]
  MIC values: 0.39 µg/mL (≈ 0.773 µM)
[20]
  MIC values: 12.5 µg/mL (≈ 24.8 µM)
[21]
  MIC values: 3.1 µg/mL (≈ 6.15 µM)
[22]
  MIC values: 0.78 µg/mL (≈ 1.55 µM)
Escherichia coli JUHL
  MIC values: 0.39 µg/mL (≈ 0.773 µM)
[23]
  MIC values: 100 µg/mL (≈ 198 µM)
[24]
  MIC values: 0.2 µg/mL (≈ 0.396 µM)
[25]
  MIC values: 0.2 µg/mL (≈ 0.396 µM)
[26]
  MIC values: 0.39 µg/mL (≈ 0.773 µM)
Escherichia coli SS
  MIC values: 0.005 µg/mL (≈ 0.00991 µM)

## NC1CCN(c2nc3c(-c4ccc(F)cc4F)cc(C(=O)O)c(=O)n3cc2F)C1 (centres unmarked) [Example 161, 2-(3-Aminopyrrolidin-1-yl)-9-(2,4-difluorophenyl)-3-fluoro-6H-6-oxopyrido[1,2-a]pyrimidine-7-carboxylic acid]
[1]
  MIC values: 100 µg/mL (≈ 247 µM)
[2]
  MIC values: 0.2 µg/mL (≈ 0.495 µM)
[3]
  MIC values: 0.39 µg/mL (≈ 0.965 µM)
[4]
  MIC values: 0.78 µg/mL (≈ 1.93 µM)
[5]
  MIC values: 0.39 µg/mL (≈ 0.965 µM)
Escherichia coli H560
  MIC values: 0.02 µg/mL (≈ 0.0495 µM)
[6]
  MIC values: 1.56 µg/mL (≈ 3.86 µM)
[7]
  MIC values: 100 µg/mL (≈ 247 µM)
[8]
  MIC values: 0.1 µg/mL (≈ 0.247 µM)
Escherichia coli KNK 437
  MIC values: 0.2 µg/mL (≈ 0.495 µM)
[9]
  MIC values: 0.1 µg/mL (≈ 0.247 µM)
Escherichia coli DC-2
  MIC values: 0.2 µg/mL (≈ 0.495 µM)
[10]
  MIC values: 3.1 µg/mL (≈ 7.67 µM)
[11]
  MIC values: 3.1 µg/mL (≈ 7.67 µM)
[12]
  MIC values: 0.39 µg/mL (≈ 0.965 µM)
[13]
  MIC values: 1.56 µg/mL (≈ 3.86 µM)
[14]
  MIC values: 0.2 µg/mL (≈ 0.495 µM)
[15]
  MIC values: 0.01 µg/mL (≈ 0.0247 µM)
[16]
  MIC values: 0.05 µg/mL (≈ 0.124 µM)
[17]
  MIC values: 0.2 µg/mL (≈ 0.495 µM)
[18]
  MIC values: 0.1 µg/mL (≈ 0.247 µM)
Pseudomonas cepacia 296I
  MIC values: 3.1 µg/mL (≈ 7.67 µM)
[19]
  MIC values: 0.1 µg/mL (≈ 0.247 µM)
[20]
  MIC values: 0.05 µg/mL (≈ 0.124 µM)
[21]
  MIC values: 0.05 µg/mL (≈ 0.124 µM)
[22]
  MIC values: 0.1 µg/mL (≈ 0.247 µM)
Escherichia coli JUHL
  MIC values: 0.02 µg/mL (≈ 0.0495 µM)
[23]
  MIC values: 100 µg/mL (≈ 247 µM)
[24]
  MIC values: 0.05 µg/mL (≈ 0.124 µM)
[25]
  MIC values: 0.05 µg/mL (≈ 0.124 µM)
[26]
  MIC values: 0.1 µg/mL (≈ 0.247 µM)
Escherichia coli SS
  MIC values: 0.005 µg/mL (≈ 0.0124 µM)

## CN1CCN(c2nc3c(C4CC4)cc(C(=O)O)c(=O)n3cc2F)CC1 [Example 163, 9-Cyclopropyl-3-fluoro-2-(4-methylpiperazin-1-yl)-6H-6-oxo-pyrido[1,2-a]pyrimidine-7-carboxylic acid]
[1]
  MIC values: > 100 µg/mL
[2]
  MIC values: 3.1 µg/mL (≈ 8.95 µM)
[3]
  MIC values: 12.5 µg/mL (≈ 36.1 µM)
[4]
  MIC values: 12.5 µg/mL (≈ 36.1 µM)
[5]
  MIC values: 12.5 µg/mL (≈ 36.1 µM)
Escherichia coli H560
  MIC values: 0.1 µg/mL (≈ 0.289 µM)
[6]
  MIC values: 50 µg/mL (≈ 144 µM)
[7]
  MIC values: 100 µg/mL (≈ 289 µM)
[8]
  MIC values: 1.56 µg/mL (≈ 4.5 µM)
Escherichia coli KNK 437
  MIC values: 3.1 µg/mL (≈ 8.95 µM)
[9]
  MIC values: 1.56 µg/mL (≈ 4.5 µM)
Escherichia coli DC-2
  MIC values: 6.2 µg/mL (≈ 17.9 µM)
[10]
  MIC values: 12.5 µg/mL (≈ 36.1 µM)
[11]
  MIC values: 25 µg/mL (≈ 72.2 µM)
[12]
  MIC values: 12.5 µg/mL (≈ 36.1 µM)
[13]
  MIC values: 50 µg/mL (≈ 144 µM)
[14]
  MIC values: 1.56 µg/mL (≈ 4.5 µM)
[15]
  MIC values: 0.1 µg/mL (≈ 0.289 µM)
[16]
  MIC values: 0.39 µg/mL (≈ 1.13 µM)
[17]
  MIC values: 3.1 µg/mL (≈ 8.95 µM)
[18]
  MIC values: 1.56 µg/mL (≈ 4.5 µM)
Pseudomonas cepacia 296I
  MIC values: 12.5 µg/mL (≈ 36.1 µM)
[19]
  MIC values: 1.56 µg/mL (≈ 4.5 µM)
[20]
  MIC values: 0.39 µg/mL (≈ 1.13 µM)
[21]
  MIC values: 1.56 µg/mL (≈ 4.5 µM)
[22]
  MIC values: 12.5 µg/mL (≈ 36.1 µM)
Escherichia coli JUHL
  MIC values: 0.2 µg/mL (≈ 0.577 µM)
[23]
  MIC values: 100 µg/mL (≈ 289 µM)
[24]
  MIC values: 0.78 µg/mL (≈ 2.25 µM)
[25]
  MIC values: 1.56 µg/mL (≈ 4.5 µM)
[26]
  MIC values: 1.56 µg/mL (≈ 4.5 µM)
Escherichia coli SS
  MIC values: 0.1 µg/mL (≈ 0.289 µM)
